These results are taken from ChEMBL document CHEMBL1909046, “DrugMatrix in vitro pharmacology data”.

One series deals with Cytochrome P450 2E1 (Homo sapiens, UniProt P05181). The following applies: bti-tn-5b1-4.
Series [1] is described as follows: DRUGMATRIX: Nicotinic Acetylcholine radioligand binding (ligand: [125I] Epibatidine). Type of series: cell membranes, Membrane. The following applies: imr-32; Not Active = under 50% inhibition at 10 µM.
Series [2] has as its target Protein kinase C alpha type (Homo sapiens, UniProt P17252). In kind it is cell-based. The following applies: sf9.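 Also: inhibition of PKCalpha kinase activity measured in an enzyme assay with histone as the phosphorylation substrate; in other assays of this panel Not Active means under 50% inhibition at 10 µM.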
A short description of series [3]: DRUGMATRIX: Sigma2 radioligand binding (ligand: [3H] Ifenprodil). In kind it is cell membranes, Rattus norvegicus, Wistar, Brain, Membrane. The following applies: Not Active = under 50% inhibition at 10 µM.
A further series addresses T1, Substance-K receptor (Homo sapiens, UniProt P21452).
T1 sequence (P21452 whole entry): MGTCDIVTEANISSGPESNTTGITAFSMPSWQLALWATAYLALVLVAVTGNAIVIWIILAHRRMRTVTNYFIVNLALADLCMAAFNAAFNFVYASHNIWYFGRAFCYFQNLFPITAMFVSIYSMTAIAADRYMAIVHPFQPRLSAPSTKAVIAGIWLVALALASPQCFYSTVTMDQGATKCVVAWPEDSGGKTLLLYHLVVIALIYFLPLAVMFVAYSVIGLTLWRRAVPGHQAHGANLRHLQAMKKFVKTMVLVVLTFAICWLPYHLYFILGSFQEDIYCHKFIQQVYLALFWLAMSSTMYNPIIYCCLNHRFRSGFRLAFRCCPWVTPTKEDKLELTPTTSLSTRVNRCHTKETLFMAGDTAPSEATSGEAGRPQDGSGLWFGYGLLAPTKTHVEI
In kind it is cell membranes, CHO, Membrane.

The target in series [4] is Epidermal growth factor receptor (Homo sapiens, UniProt P00533). Nature of the series: DRUGMATRIX: Protein Tyrosine Kinase, EGF Receptor enzyme inhibition (substrate: Poly(Glu:Tyr)). Type of series: cell-based, Insect cells. The following applies: Not Active = under 50% inhibition at 10 µM.
Sequence of Epidermal growth factor receptor (P00533 whole entry): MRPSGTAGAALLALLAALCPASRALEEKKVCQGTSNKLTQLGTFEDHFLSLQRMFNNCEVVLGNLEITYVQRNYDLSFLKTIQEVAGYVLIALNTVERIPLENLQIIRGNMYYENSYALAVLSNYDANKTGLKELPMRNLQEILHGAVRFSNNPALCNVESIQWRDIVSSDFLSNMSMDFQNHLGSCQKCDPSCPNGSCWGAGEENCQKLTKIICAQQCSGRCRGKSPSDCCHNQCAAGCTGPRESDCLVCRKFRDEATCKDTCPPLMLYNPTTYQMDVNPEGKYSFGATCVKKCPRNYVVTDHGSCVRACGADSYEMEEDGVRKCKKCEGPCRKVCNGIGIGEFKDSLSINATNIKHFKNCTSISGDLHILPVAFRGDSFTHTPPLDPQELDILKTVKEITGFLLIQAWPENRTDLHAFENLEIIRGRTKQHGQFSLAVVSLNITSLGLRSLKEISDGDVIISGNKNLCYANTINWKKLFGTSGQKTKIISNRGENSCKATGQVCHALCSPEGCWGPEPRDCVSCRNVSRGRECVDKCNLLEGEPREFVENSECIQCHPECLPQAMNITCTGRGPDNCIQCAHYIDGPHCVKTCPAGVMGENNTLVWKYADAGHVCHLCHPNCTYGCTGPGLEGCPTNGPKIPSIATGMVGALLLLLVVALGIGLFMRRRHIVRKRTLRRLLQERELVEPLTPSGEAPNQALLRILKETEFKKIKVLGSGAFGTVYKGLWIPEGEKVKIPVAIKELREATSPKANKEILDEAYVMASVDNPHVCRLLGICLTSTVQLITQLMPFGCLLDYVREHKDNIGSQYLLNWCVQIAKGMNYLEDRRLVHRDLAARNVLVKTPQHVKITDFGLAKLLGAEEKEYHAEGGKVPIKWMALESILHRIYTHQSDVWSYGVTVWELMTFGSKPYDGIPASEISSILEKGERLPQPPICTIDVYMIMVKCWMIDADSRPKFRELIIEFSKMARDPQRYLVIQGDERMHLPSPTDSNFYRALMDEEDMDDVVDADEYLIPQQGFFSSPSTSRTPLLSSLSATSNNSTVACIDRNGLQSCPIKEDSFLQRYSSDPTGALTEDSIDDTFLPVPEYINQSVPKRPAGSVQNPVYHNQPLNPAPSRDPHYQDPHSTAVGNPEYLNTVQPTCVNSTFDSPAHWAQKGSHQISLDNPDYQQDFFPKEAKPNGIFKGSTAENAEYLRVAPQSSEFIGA
Series [5] addresses T2, Neuropeptide Y receptor type 2 (Homo sapiens, UniProt P49146).
T2 sequence (P49146 whole entry): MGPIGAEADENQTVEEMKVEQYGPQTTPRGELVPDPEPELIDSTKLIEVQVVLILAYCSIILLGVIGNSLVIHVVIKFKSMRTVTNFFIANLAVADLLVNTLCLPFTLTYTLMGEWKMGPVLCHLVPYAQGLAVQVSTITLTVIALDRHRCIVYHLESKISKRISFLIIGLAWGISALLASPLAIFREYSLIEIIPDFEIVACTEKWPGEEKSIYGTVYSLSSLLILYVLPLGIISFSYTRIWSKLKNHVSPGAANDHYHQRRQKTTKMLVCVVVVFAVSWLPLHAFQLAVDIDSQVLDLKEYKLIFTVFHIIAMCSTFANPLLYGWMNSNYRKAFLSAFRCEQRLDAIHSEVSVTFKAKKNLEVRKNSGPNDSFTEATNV
Type of series: cell membranes, Membrane. The following applies: kan-ts.

Sequence of Cytochrome P450 2E1 (P05181 whole entry): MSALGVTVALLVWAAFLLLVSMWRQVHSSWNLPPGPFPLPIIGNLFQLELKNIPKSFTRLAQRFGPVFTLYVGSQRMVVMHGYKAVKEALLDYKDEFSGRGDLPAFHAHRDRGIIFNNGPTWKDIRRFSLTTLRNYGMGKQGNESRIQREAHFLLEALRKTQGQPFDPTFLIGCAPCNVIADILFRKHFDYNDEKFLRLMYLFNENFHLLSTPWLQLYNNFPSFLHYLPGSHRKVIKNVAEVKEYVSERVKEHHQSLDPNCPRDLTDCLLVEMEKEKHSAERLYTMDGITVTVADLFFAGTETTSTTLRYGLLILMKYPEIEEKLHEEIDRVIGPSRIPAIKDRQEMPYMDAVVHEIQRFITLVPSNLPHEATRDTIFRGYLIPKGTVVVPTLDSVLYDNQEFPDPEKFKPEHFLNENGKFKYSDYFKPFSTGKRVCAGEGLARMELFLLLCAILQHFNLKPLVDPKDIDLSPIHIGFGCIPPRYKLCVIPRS

Consider `CC1(C)O[C@@H]2C[C@H]3[C@@H]4C[C@H](F)C5=CC(=O)CC[C@]5(C)[C@H]4[C@@H](O)C[C@]3(C)[C@]2(C(=O)CO)O1` [FLURANDRENOLIDE], for which the IC50 result (on Cytochrome P450 2E1; in series [1]; in series [2]; in series [3]; at Substance-K receptor (cho); in series [4] (insect cells)) was “Not Active” in each case. The 50% inhibitory concentration (IC50) entry in series [5] is given as “Not Active”. The Ki result (at Cytochrome P450 2E1; in series [1]; in series [3]) was “Not Active” each time.
`CN(C)c1ccc(C(=C2C=CC(=[N+](C)C)C=C2)c2ccc(N(C)C)cc2)cc1.[Cl-]` [GENTIAN VIOLET]: the concentration for half-maximal inhibition (IC50) entry is “Not Active” against Cytochrome P450 2E1; “Not Active” in series [1]; “Not Active” in series [2]; “Not Active” in series [3]; 1680 nM at Substance-K receptor (read-out: IC50); 473 nM in series [4] (read-out: IC50). Further, in series [5], the IC50 result was “Not Active”. In addition, the Ki entry at Cytochrome P450 2E1 was “Not Active”; in series [1], “Not Active”; in series [3], “Not Active”; at Substance-K receptor (read-out: Ki), 560 nM.
`Cc1ccc(S(=O)(=O)NC(=O)NN2CC3CCCC3C2)cc1` (stereo unspecified) [GLICLAZIDE]: the IC50 entry (against Cytochrome P450 2E1; in series [1]; in series [2]; in series [3]; against Substance-K receptor (cho); in series [4] (insect cells)) was “Not Active” throughout. Moreover, the half-maximal inhibitory concentration (IC50) entry in series [5] was “Not Active”. Besides, the Ki entry (at Cytochrome P450 2E1; in series [1]; in series [3]) was “Not Active” in each case.
Regarding `CC(C)Cc1ccc(C(C)C(=O)O)cc1` (stereo unspecified) [IBUPROFEN], the IC50 result (at Cytochrome P450 2E1; in series [1]; in series [2]; in series [3]; against Substance-K receptor (cho); in series [4] (insect cells)) was “Not Active” throughout. Also, the IC50 result in series [5] is listed as “Not Active”. In addition, the Ki result (at Cytochrome P450 2E1; in series [1]; in series [3]) was “Not Active” each time.
For `COc1ccc2c(c1)c(CC(=O)O)c(C)n2C(=O)c1ccc(Cl)cc1` [INDOMETHACIN], the half-inhibitory concentration (IC50) result (on Cytochrome P450 2E1; in series [1]; in series [2]; in series [3]; at Substance-K receptor (cho); in series [4] (insect cells)) was “Not Active” each time. Besides, in series [5], the IC50 entry is on record as “Not Active”. Besides, the inhibitory constant (Ki) result (at Cytochrome P450 2E1; in series [1]; in series [3]) was “Not Active” in each case.
On to `CCc1c2c(nc3ccc(OC(=O)N4CCC(N5CCCCC5)CC4)cc13)-c1cc3c(c(=O)n1C2)COC(=O)[C@]3(O)CC` [IRINOTECAN], for which the IC50 entry (at Cytochrome P450 2E1; in series [1]; in series [2]; in series [3]; on Substance-K receptor (cho); in series [4] (insect cells)) was “Not Active” throughout. In addition, the half-maximal inhibitory concentration (IC50) result in series [5] is reported as “Not Active”. The inhibition constant (Ki) entry (on Cytochrome P450 2E1; in series [1]; in series [3]) was “Not Active” in each case.
Take `CC(C(=O)O)c1cccc(C(=O)c2ccccc2)c1` (stereo unspecified) [KETOPROFEN]: the half-inhibitory concentration (IC50) entry (on Cytochrome P450 2E1; in series [1]; in series [2]; in series [3]; at Substance-K receptor (cho); in series [4] (insect cells)) was “Not Active” each time. Also, in series [5], the half-inhibitory concentration (IC50) entry is recorded as “Not Active”. Besides, the inhibition constant Ki entry (on Cytochrome P450 2E1; in series [1]; in series [3]) was “Not Active” each time.
Turning to `Nc1ccn([C@@H]2CS[C@H](CO)O2)c(=O)n1` [LAMIVUDINE], the IC50 result (against Cytochrome P450 2E1; in series [1]; in series [2]; in series [3]; at Substance-K receptor (cho); in series [4] (insect cells)) was “Not Active” each time. Moreover, in series [5], the concentration for half-maximal inhibition (IC50) entry was “Not Active”. The Ki entry (at Cytochrome P450 2E1; in series [1]; in series [3]) was “Not Active” each time.
